Results reported in patent publication US11952431B2, “Neutrophil-binding peptides” (YISSUM RESEARCH DEVELOPMENT COMPANY OF THE HEBREW …, priority 2020, dated 2024).
“Also recorded” adds a separate entry of the source.

Tests used:
murine neutrophils = experiment: Phage-display screening of a peptide library on murine neutrophils; format: binding, mouse; conditions: prevalence in the final eluate, average of 5 replicates
Procedure: A phage-display screening of a peptide library was conducted, in a similar way to a screen conducted by Mazzucchelli et al. (Blood, 1999, 93(5), 1738-1748). In the present screen, a library of pages displaying 10^12 different peptides on their VIII protein was used to identify peptides that bind to murine neutrophils. The peptides in the library were random sequences of 6-12 amino acids in linear or cyclic form (Ryvkin et al., 2018, Nucleic Acids Research, 2018, Vol. 46, No. 9 e52). The screen was conducted using murine Normal-Density Neutrophils (NDN) for positive selection, whereas monocytes and lymphocytes served for negative selection. Following 3 rounds of positive panning and 2 interlaced rounds of negative panning, the neutrophil affinity selected phages were eluted and sequenced (FIG. 11). The top-ranking enriched peptide sequences and their prevalence in the final eluate (average of 5 replicates) are presented in Table 3.

[1] = test system: PMA stimulated ROS production in neutrophils; experiment: PMA induced ROS production after pretreatment with DPI or loaded nanoparticles; format: cell-based; conditions: pretreated 3 hrs with 10 ul NP or 1 uM free DPI, then 50 nM PMA
Procedure: PLGA NPs are known to gradually degrade within the cell, releasing any encapsulated payload. Therefore, whether neutrophil degranulation ROS production could be modulated by encapsulating small molecule inhibitors within neutrophil specific NPs (NSNPs) was tested. […] DPI was loaded in the LQI-coated nanoparticles using a single emulsion encapsulation process. Then, neutrophils were pretreated for 3 hrs with 10 ul empty NP (Empty NP), 10 ul DPI-loaded NP (NP+DPI) or 1 uM free DPI. After one wash, neutrophils were stimulated with 50 nM PMA to induce ROS production. Positive control for PMA induction were neutrophils pretreated with vehicle (empty NP). Negative control (Cont.) were untreated neutrophils.

monocytes or lymphocytes = experiment: Binding of peptide-presenting phage to WBC of 4T1 tumor bearing mice (anti-M13 PE, flow cytometry); set-up: species or system mouse; conditions: phage presenting the peptide
Procedure: (§1) FIGS. 1A-D: Validation of Phage Binding of Highest-Ranking Peptides Sequences Selected on Mouse Neutrophils. […] (SEQ ID NO: 9) peptide to neutrophils (Ly6G+CD11b+, red histogram) and other WBC (Ly6G−CD11b−, blue histogram) was evaluated using anti-M13 PE-labelled antibody and (1A) flow cytometry analysis or (1B) microscopy. (1C) Overview of LQI peptide constructs—the LQI peptide sequence on the phage is inserted within the protein VIII coat protein of the phage (LQI peptide in orange) and neighboring amino acid residues are depicted (recombinant LQI pVIII). An unlabeled, Cy5-labeled, biotin-labeled and the LQI peptide construct including neighboring amino acids from coat protein VIII as well as a glycine linker and fluorescein, were generated and tested for binding. (1D) Competition assay of LQI phage binding and LQI peptide constructs. Neutrophils were incubated with the LQI-presenting phage (black line) alone or with the LQI-presenting phage and different LQI peptide constructs at the same time (blue line). Phage binding to neutrophils was quantified using anti-M13-PE antibody (only M13-PE=dotted line).
(§2) The peptide having the best binding obtained in the screening was the peptide LQI, consisting of the amino acid sequence […] (SEQ ID NO: 9).

[2] = test system: neutrophils (Ly6G+CD11b+); experiment: as above; set-up: species or system mouse; conditions: phage presenting the peptide
Procedure: as §1, §2

[3] = test system: murine neutrophils (HDNs from 4T1 tumor bearing Balb/C mice); experiment: Competition assay of LQI phage binding with synthetic LQI peptide constructs; set-up: species or system mouse; conditions: peptide 20 min, then 10^10 LQI phages; M13-PE flow cytometry
Procedure: Several LQI monomeric peptide conjugates were synthesized by tagging the N-terminus of LQI peptide with Cy5, biotin or fluorescein (FIG. 1C). Competition assays were then performed in order to evaluate the binding of LQI and its conjugates to murine neutrophils. For the competition assays, 1×10^6 density-gradient purified HDNs from 4T1 tumor bearing Balb/C mice were incubated first with each of the synthetic peptides for 20 min, and later incubated with 10^10 phages presenting the LQI peptide on their surface. Phage binding was detected by flow cytometry with a M13-PE antibody.

murine CD177 = target: T1, murine CD177 (Mus musculus, UniProt Q8R2S8); experiment: Binding to HEK293T cells ectopically expressing CD177; conditions: control versus CD177-overexpressing cells
T1 construct: expressed in transfected cells; host or cells: HEK293T
T1 sequence (Q8R2S8 22-817): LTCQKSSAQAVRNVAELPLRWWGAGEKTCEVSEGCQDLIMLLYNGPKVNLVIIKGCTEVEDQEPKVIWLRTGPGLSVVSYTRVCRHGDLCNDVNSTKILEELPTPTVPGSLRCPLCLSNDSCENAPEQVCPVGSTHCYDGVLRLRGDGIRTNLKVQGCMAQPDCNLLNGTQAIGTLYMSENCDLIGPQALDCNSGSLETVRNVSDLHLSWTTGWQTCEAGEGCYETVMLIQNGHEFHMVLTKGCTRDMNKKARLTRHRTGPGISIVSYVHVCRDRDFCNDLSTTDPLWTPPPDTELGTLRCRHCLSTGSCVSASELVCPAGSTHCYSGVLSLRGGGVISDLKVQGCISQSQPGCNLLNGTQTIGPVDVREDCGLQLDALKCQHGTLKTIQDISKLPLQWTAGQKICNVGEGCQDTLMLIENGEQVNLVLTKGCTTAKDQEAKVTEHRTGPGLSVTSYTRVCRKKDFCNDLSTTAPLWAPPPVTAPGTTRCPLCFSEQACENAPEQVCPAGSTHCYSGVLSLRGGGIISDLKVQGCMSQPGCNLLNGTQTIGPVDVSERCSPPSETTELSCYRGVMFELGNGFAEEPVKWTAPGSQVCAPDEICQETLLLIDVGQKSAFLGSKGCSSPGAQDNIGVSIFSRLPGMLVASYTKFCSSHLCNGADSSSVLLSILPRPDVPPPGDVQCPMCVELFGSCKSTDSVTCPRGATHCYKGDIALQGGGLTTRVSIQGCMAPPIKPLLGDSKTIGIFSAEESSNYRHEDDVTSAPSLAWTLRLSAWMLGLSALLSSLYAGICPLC

neutrophils [4] = experiment: LQI tetramer alone or 16-LQI binding to WBCs, flow cytometry; set-up: species or system mouse; conditions: WBCs from 4T1-tumor bearing mice, 30 min at 4° C.
Procedure: (§3) After washing, the cells were stained with 50 μl 3.3 μg/ml of Streptavidin-Cy3 (SA-Cy3).
(§4) “Tetramer-Streptavidin Complex”:1 μl of the 309 μM stock solution of the tetrameric peptide was preincubated with 300 μl of 3.3 μg/ml SA-Cy3 for 30 min at RT. 100 μl of LQI tetramer-SA-Cy3 mix was then used to stain 0.5×10^6 cells.
(§5) The cells were washed and analyzed by flow cytometry.

other WBC = experiment: as above; set-up: species or system mouse; conditions: WBCs from 4T1-tumor bearing mice, 30 min at 4° C.
Procedure: as §3, §4, §5

[5] = test system: murine neutrophils (HDNs from 4T1-tumor bearing mice); experiment: Titration of binding to purified HDNs, flow cytometry; set-up: species or system mouse
Procedure: Analysis was performed by flow cytometry.

neutrophils [6] = experiment: Doublet analysis of flow cytometry data for crosslinking of neutrophils; format: cell-based, mouse
Procedure: In order to rule out that there is a crosslinking between neutrophils when incubating with the LQI tetramer-SA-complex, flow cytometry data was analyzed to assess if there was an increase in doublet cells after incubation with the LQI tetramer-SA-complex. It is possible to examine the light scatter plots and compare the height signal of a voltage pulse (SSC-H, FSC-H) to the area values (SSC-A, FSC-A; A=Height*Width). If a doublet passes the laser beam in the flow cytometer, the width of the pulse signal (corresponds to time) will increase and therefore the value for the area (SSC-A and FSC-A) will increase. By comparing e.g. SSC-H and SSC-A it is possible to identify doublets because they are outliers in the blot.

circulating neutrophils = experiment: Ex vivo binding to circulating neutrophils of healthy and tumor bearing mice; set-up: species or system mouse
Procedure: 0.5×10^6 purified HDNs were stained in 100 μl of preincubated 3.3 μg/ml 16-LQI-Cy3 solution for 30 min at 4° C. […] After staining, cells were washed and analyzed by flow cytometry.

neutrophils [7] = experiment: Confocal imaging of 16-LQI with Gr-1 neutrophils; format: cell-based, mouse
Procedure: FIGS. 2A-I: (2A) Schematic representation of the structure of a tetrameric LQI. […] (2E) Representative histogram showing the percent binding of 16-LQI to each WBC population in healthy Balb/C mice following ex vivo incubation and staining with Streptavidin-Cy3, as analyzed by flow cytometry. *=gating based on light scatter. […] Ly6G^+ population represent HDN and Ly6G− cells are other WBCs. […] (2I) Representative image of confocal microscopy with Gr-1 neutrophils (green) bound by the 16-LQI (red).

[8] = test system: circulating CD177+ cells (neutrophils); experiment: Flow cytometry of WBC stained for CD177 and 16-LQI; format: binding, mouse
From the text: (§6) (21C-D) Representative dot plots of isolated WBC stained with (21C) Ly6G and CD177 or (21D) CD177 and 16-LQI. […] (21F) Representative STORM imaging of a single neutrophil with staining of CD177 (green) and 16-LQI (red), overlay with brightfield (left) or DAPI staining of nucleus (right). (21G) Quantification of CD177 and 16-LQI interaction for image depicted in (E) using the ImageJ Interaction Factor plugin.

CD177 [9] = target: T2, CD177 (Mus musculus, UniProt Q8R2S8); experiment: STORM imaging of CD177 and 16-LQI on a neutrophil; format: binding; set-up: endogenous in cells; host or cells: murine neutrophils
T2 sequence (Q8R2S8 22-817): T1 sequence (Q8R2S8 22-817)
From the text: as §6

[10] = test system: tumor-associated neutrophils (TANs); conditions: TANs from 4T1 tumors, 30 min at 4° C.
From the text: After staining, cells were washed and analyzed by flow cytometry.

[11] = test system: neutrophils (HDNs) from 4T1 tumor bearing Balb/C mice
Procedure: 800 μl of 2% FCS/RPMI medium were placed into the 24-well plate, then Millicell® cell culture inserts with a pore size of […] were placed into the wells and allowed to soak for 5 min. HDNs were suspended to a density of 250,000 cells/ml in 2% FCS/RPMI and 200 μl of the cell suspension were placed into the upper chamber of the transwell insert. Migration was stimulated by addition of […] CXCL2 to the bottom chamber of the wells (consider V=800 μl), and peptide was added to HDN in the upper chamber in two different concentrations (3.09 μM or 309 nM considering […]). Assay was stopped after 1.5 hr and inserts were removed with a forceps. Each condition was tested in triplicate. 5 pictures were taken per well at the same coordinates (middle, top, bottom, left, right). Cells per field of view were counted using ImageJ.
The purified HDNs were placed in the upper chamber of a transwell (pore size 5 μm) in 2% FCS/RPMI medium. The lower chamber contained either only 2% FCS/RPMI medium or the chemokine CXCL2 to induce neutrophil migration. […] The assay was stopped after 1.5 h incubation, five pictures of each well were taken, counted and averaged. The experiment was done in triplicates.

[12] = test system: 4T1 cancer cells co-cultured with HDNs
Procedure: In vitro luciferase assay to monitor the anti-tumor activity of isolated neutrophils (‘Killing Assay’): 5,000 luciferase-labeled 4T1 breast carcinoma cells were seeded in 100 μl OptiMem medium containing 2% heat-inactivated FCS in each well of a white 96-flat-bottom well plate. 24 hours after seeding the tumor cells, 1×10^5 HDNs purified from the circulation of 4T1-tumor-bearing mice were added in 50 μl OptiMem with 2% FCS. The co-culture was incubated overnight. Control wells were incubated in 50 μl medium without neutrophils. Multiple repeats (12 wells) were done of each experimental setting. The supernatant was aspirated and 50 μl of cell culture lysis buffer were added (Promega). The plate was incubated for 15 min on an orbital shaker and then read in the plate-reader. Well-wise 50 μl of in-house prepared luciferase assay solution was injected during the measurement, and chemiluminescence was read for 10 sec per well. % tumor lysis was calculated by the following formula: % tumor lysis=(1−[luminescence of samples with neutrophils]/[luminescence of samples in medium])×100%.
In more details, 5.000 luciferase-labeled 4T1 breast carcinoma cells were cultured for 18 hours. […] The next day, luciferin dependent chemiluminescence was measured and the percentage of killing was calculated compared to control wells that were not cultured with HDNs. […]

CD177 [13] = target: T2, CD177; conditions: neutrophil lysate 3 h, mass spectrometry
Procedure: After washing, the bound proteins were eluted by incubating the beads for 10 min at 95° C. in protein sample buffer containing beta-mercaptoethanol. The gel was stained using silver staining. Lanes of the eluates of peptide- and control-beads were cut out and analyzed by mass spectrometry.

Compound: LTLVSERPMI
- Prevalence (%) (murine neutrophils): 1.5%

Compound: TETSLRIVSTNP
- Prevalence (%) (murine neutrophils): 4.1%

Compound: c1ccc2c(c1)[I+]c1ccccc1-2 [DPI, diphenyleneiodonium chloride]
- effect on PMA stimulated ROS production [1]: efficiently blocked; also recorded: completely blocked ROS production

Compound: LQIQSWSSSP
- Prevalence (%) (murine neutrophils): 28.4%
- binding of phage to monocytes or lymphocytes (monocytes or lymphocytes): no detectable binding
- binding of phage to neutrophils [2]: 95%
- competition with LQI phage binding to neutrophils [3]: able to compete with the phage binding to neutrophils
- binding to HEK293T cells (murine CD177): binds only to HEK293T cells ectopically expressing the murine CD177

Compound: STMTILGTGS
- Prevalence (%) (murine neutrophils): 10.4%

Compound: 16-LQI: LQI tetramer-streptavidin (SA) complex, a 16-mer of the LQI-peptide [Peptide 16-LQI]
- binding of neutrophils (neutrophils [4]): 100%
- binding to other WBC (other WBC): ~10%
- affinity for neutrophils relative to LQI-tetramer alone [5]: more than 75 times
- percentage of doublets versus cells stained with only SA-Cy3 (neutrophils [6]): Differences were not detected
- specificity to circulating neutrophils (Ly6G+ cells) (circulating neutrophils; mice bearing 4T1 tumors): strong specificity
- binding to circulating neutrophils (circulating neutrophils; neutrophils isolated from healthy mice, ex vivo): 87%
- uptake seen by confocal imaging (neutrophils [7]): engulfed specifically by neutrophils
- binding to circulating CD177+ cells [8]: all circulating CD177+ cells (neutrophils) bind
- clusters in which CD177 and 16-LQI signals overlap (CD177 [9]): > 90%

Compound: LSIVSGSALNHL
- Prevalence (%) (murine neutrophils): 2.9%

Compound: (LQIQSWSSSP (SEQ ID NO: 9) Doa-Doa-C)4-(Mpa)-4-Lys2-Lys-beta-Ala-Lys(Biotin)-beta-Ala-OH [LQI tetramer]
- binding of neutrophils (neutrophils [4]): ~100%
- binding to other WBC (other WBC): ~50%
- Kd ([5]; purified HDNs, flow cytometry): 3.3 µM
- binding to the different types of neutrophils (circulating neutrophils; summary FIG. 2H): very high efficiency
- binding efficiency to TANs [10]: 98%
- effect on neutrophil migration ([11]; 3.09 μM and 309 nM in upper chamber, CXCL2 in lower chamber, 1.5 h): no significant effect on neutrophil migration
- chemoattractant activity ([11]; migration towards media containing LQI-tetramer): does not itself act as a chemoattractant
- effect on the ability of HDNs to kill cancer cells [12]: does not affect the ability of HDNs to kill cancer cells
- peptide/control ratio of CD177 in pulldown (CD177 [13]): 7.89
